Where two headings read alike, the source gives them in different places.
Columns and labels:
[1] = target: T1, human Bradykinin B1 receptor (Homo sapiens, UniProt P46663); assay: Calcium flux Assay (FLIPR) with recombinant CHO-K1 cells expressing human Bradykinin B1 receptor, in presence (hB1 IC50) or absence (hB1 free IC50) of 0.1% BSA; assay type: cell-based
T1 construct: host or cells: CHO-K1
T1 sequence (P46663 1-353): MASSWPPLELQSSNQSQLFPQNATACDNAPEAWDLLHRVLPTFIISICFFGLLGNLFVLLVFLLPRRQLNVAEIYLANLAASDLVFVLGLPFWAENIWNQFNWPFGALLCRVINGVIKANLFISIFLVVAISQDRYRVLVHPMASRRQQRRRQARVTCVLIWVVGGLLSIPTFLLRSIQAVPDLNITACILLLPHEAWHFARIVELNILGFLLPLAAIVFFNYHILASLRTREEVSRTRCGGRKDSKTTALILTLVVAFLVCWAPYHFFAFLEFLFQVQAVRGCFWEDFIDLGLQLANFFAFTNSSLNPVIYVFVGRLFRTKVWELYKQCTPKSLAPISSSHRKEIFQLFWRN

[2] = target: T2, native human Bradykinin B1 receptor (Homo sapiens, UniProt P46663); assay: Calcium flux Assay (FLIPR) with human fibroblasts expressing Bradykinin B1 receptor (hB1 IMR-90); assay type: cell-based; conditions: IMR-90 human fibroblasts expressing native Bradykinin B1 receptor
T2 construct: which express native human Bradykinin B1 receptor after induction with human IL-10; Coriell Institute; host or cells: IMR-90 human foetal lung fibroblasts, cytokine-induced
T2 sequence (P46663 1-353): T1 sequence (P46663 1-353)
Summary of the method: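 IMR-90 human foetal lung fibroblasts induced with 0.35 ng/mL […] for 3 h, Fluo-4/AM-loaded, preincubated with compound (8 concentrations, triplicate) for 30 min at 28 °C, then challenged with Lys-(Des-Arg)-bradykinin at EC90. Ca2+ fluorescence was read at 538 nm; full inhibition set by 20 µM Lys-(Des-Arg-Leu)-bradykinin; IC50 derived.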

[3] = in absence of 0.1% BSA, read-out: hB1 free IC50
[4] = in presence of 0.1% BSA, read-out: hB1 IC50

Compound	IC50 [1, 3] [nM]	IC50 [2] [nM]	IC50 [1, 4] [nM]
Cn1ncc2ccc(-c3ccc(NC(=O)C4(c5cccc(Cl)c5)CC4)cc3-c3nnn[nH]3)cc21 [Example 213, 1-(3-chlorophenyl)-N-[4-(1-methyl-1H-indazol-6-yl)-3-(1H-tetrazol-5-yl)phenyl] cyclopropane-carboxamide]	18	24.7	63.2
Cn1ncc2ccc(-c3ccc(NC(=O)C4(c5cccc(Cl)c5F)CC4)cc3-c3nnn[nH]3)cc21 [Example 214, 1-(3-chloro-2-fluorophenyl)-N-[4-(1-methyl-1H-indazol-6-yl)-3-(1H-tetrazol-5-yl)phenyl] cyclopropane carboxamide]	7.93	26.9	47.2
CCn1cc(-c2ccc(NC(=O)C3(c4cccc(Cl)c4)CC3)cc2-c2nnn[nH]2)cn1 [Example 216, 1-(3-chlorophenyl)-N-[4-(1-ethyl-1H-pyrazol-4-yl)-3-(1H-tetrazol-5-yl)phenyl] cyclopropane-carboxamide]	40.6	38.8	
CCOc1ccc(-c2ncc(NC(=O)C3(c4cccc(Cl)c4)CC3)cc2-c2nnn[nH]2)cn1 [Example 218, 1-(3-chlorophenyl)-N-[6′-ethoxy-3-(1H-tetrazol-5-yl)-2,3′-bipyridin-5-yl]cyclopropane carboxamide]	264	31.6	75
O=C(Nc1cc(-c2nnn[nH]2)c(-c2ccc(C(F)(F)F)nc2)cc1O)C1(c2cc(Cl)ccc2F)CC1 [Example 222]		55.6	75.7
O=C(Nc1cc(-c2nnn[nH]2)c(-c2ccc(C(F)(F)F)nc2)cc1O)C1(c2ccc(Cl)c(F)c2)CC1 [Example 224, 1-(4-chloro-3-fluorophenyl)-N-{2-hydroxy-5-(1H-tetrazol-5-yl)-4-[6-(trifluoromethyl)pyridin-3-yl]phenyl} cyclopropane-carboxamide]		108	49.6
CCOc1ccc(-c2cc(O)c(NC(=O)C3(c4ccc(Cl)cc4)CC3)cc2-c2nnn[nH]2)cn1 [Example 227, 1-(4-chlorophenyl)-N-[4-(6-ethoxypyridin-3-yl)-2-hydroxy-5-(1H-tetrazol-5-yl)phenyl] cyclopropane-carboxamide]		177	83.8
COc1cc(-c2ccc(NC(=O)C3(c4cccc(Cl)c4)CC3)cc2-c2nnn[nH]2)ccc1C(F)(F)F [Example 233, 1-(3-chlorophenyl)-N-[3′-methoxy-2-(1H-tetrazol-5-yl)-4′-(trifluoromethyl)biphenyl-4-yl]cyclopropane carboxamide]	18.9	35.2	68.6
O=C(Nc1cc(F)c(-c2ccc(C(F)(F)F)nc2)c(-c2nnn[nH]2)c1)C1(c2cccc(Cl)c2)CC1 [Example 241, 1-(3-chlorophenyl)-N-{3-fluoro-5-(1H-tetrazol-5-yl)-4-[6-(trifluoromethyl)pyridin-3-yl]phenyl} cyclopropane-carboxamide]	54.2	127	
O=C(Nc1cc(F)c(-c2ccnc(C(F)(F)F)c2)c(-c2nnn[nH]2)c1)C1(c2cccc(Cl)c2)CC1 [Example 243, 1-(3-chlorophenyl)-N-{3-fluoro-5-(1H-tetrazol-5-yl)-4-[2-(trifluoromethyl)pyridin-4-yl]phenyl} cyclopropane-carboxamide]	203	575	
O=C(Nc1cc(F)c(-c2ccnc(C(F)(F)F)c2)c(-c2nnn[nH]2)c1)C1(c2ccc(F)c(F)c2)CC1 [Example 244, 1-(3,4-difluorophenyl)-N-{3-fluoro-5-(1H-tetrazol-5-yl)-4-[2-(trifluoromethyl)pyridin-4-yl]phenyl} cyclopropane-carboxamide]	176	512	
CCOc1ccc(-c2c(Cl)cc(NC(=O)C3(c4cccc(Cl)c4)CC3)cc2-c2nnn[nH]2)cn1 [Example 247, N-[3-chloro-4-(6-ethoxypyridin-3-yl)-5-(1H-tetrazol-5-yl)phenyl]-1-(3-chlorophenyl) cyclopropane-carboxamide]	20	37.3	61.8
CCOc1ccc(-c2c(Cl)cc(NC(=O)C3(c4cccc(Cl)c4F)CC3)cc2-c2nnn[nH]2)cn1 [Example 248, N-[3-chloro-4-(6-ethoxypyridin-3-yl)-5-(1H-tetrazol-5-yl)phenyl]-1-(3-chloro-2-fluoropheny) cyclopropane-carboxamide]	14.4	25.2	
O=C(Nc1ccc(-c2ccnc(C(F)F)c2)c(-c2nnn[nH]2)c1)C1(c2ccc(C(F)(F)F)cc2F)CC1 [Example 258, N-{4-[2-(difluoromethyl)pyridin-4-yl]-3-(1H-tetrazol-5-yl)phenyl}-1-[2-fluoro-4-(trifluoromethyl)phenyl]cyclopro-panecarboxamide]	35.2	47.3	
O=C(Nc1ccc(-c2cnc(C(F)(F)F)nc2)c(-c2nnn[nH]2)c1)C1(c2ccc(C(F)(F)F)cc2F)CC1 [Example 261, 1-[2-fluoro-4-(trifluoromethyl)phenyl]-N-{3-(1H-tetrazol-5-yl)-4-[2-(trifluoromethyl)pyrimidin-5-yl]phenyl}cyclopro-panecarboxa-mide]	212	204	

These reach a lower IC50 [2]. Values come first.

IC50 [1, 3] [nM]	IC50 [2] [nM]	IC50 [1, 4] [nM]	Compound
2.77	3.92		Cc1cc(-c2ccc(NC(=O)C3(c4ccc(C(F)(F)F)cc4F)CC3)cc2-c2nnn[nH]2)ccn1 [Example 212, 1-[2-fluoro-4-(trifluoromethyl)phenyl]-N-[4-(2-methylpyridin-4-yl)-3-(1H-tetrazol-5-yl)phenyl] cyclopropane carboxamide]
3.21	8.48		Cn1ncc2ccc(-c3ccc(NC(=O)C4(c5ccc(C(F)(F)F)cc5F)CC4)cc3-c3nnn[nH]3)cc21 [Example 215, 1-[2-fluoro-4-(trifluoromethyl)phenyl]-N-[4-(1-methyl-1H-indazol-6-yl)-3-(1H-tetrazol-5-yl)phenyl] cyclopropane-carboxamide]
27.4	23.1	49.8	O=C(Nc1cc(-c2nnn[nH]2)c(-c2ccc(C(F)(F)F)nc2)cc1O)C1(c2ccc(F)c(Cl)c2)CC1 [Example 220, 1-(3-chloro-4-fluorophenyl)-N-{2-hydroxy-5-(1H-tetrazol-5-yl)-4-[6-(trifluoromethyl)pyridin-3-yl]phenyl} cyclopropane-carboxamide]
8.26	6.8	18.6	COc1ccc(-c2c(F)cc(NC(=O)C3(c4ccc(C(F)(F)F)cc4)CC3)cc2-c2nnn[nH]2)cc1OC [Example 232, N-[2-Fluoro-3′,4′-dimethoxy-6-(1H-tetrazol-5-yl)biphenyl-4-yl]-1-[4-(trifluoromethyl)phenyl] cyclopropane-carboxamide]
11	18.6	29.9	COc1ccc(-c2c(F)cc(NC(=O)C3(c4cccc(Cl)c4)CC3)cc2-c2nnn[nH]2)cc1OC [Example 234, 1-(3-Chlorophenyl)-N-[2-fluoro-3′,4′-dimethoxy-6-(1H-tetrazol-5-yl)biphenyl-4-yl]cyclopropane carboxamide]
2.9	15.6		CCOc1ccc(-c2c(F)cc(NC(=O)C3(c4cccc(Cl)c4)CC3)cc2-c2nnn[nH]2)cn1 [Example 236, 1-(3-chlorophenyl)-N-[4-(6-ethoxypyridin-3-yl)-3-fluoro-5-(1H-tetrazol-5-yl)phenyl] cyclopropane-carboxamide]
2.35	2.83		CCOc1ccc(-c2c(F)cc(NC(=O)C3(c4ccc(C(F)(F)F)cc4F)CC3)cc2-c2nnn[nH]2)cn1 [Example 240, N-[4-(6-ethoxypyridin-3-yl)-3-fluoro-5-(1H-tetrazol-5-yl)phenyl]-1-[2-fluoro-4-(trifluoromethyl)phenyl] cyclopropane-carboxamide]
9.76	22.8		O=C(Nc1cc(F)c(-c2ccc(C(F)(F)F)nc2)c(-c2nnn[nH]2)c1)C1(c2ccc(C(F)(F)F)cc2F)CC1 [Example 242, N-{3-fluoro-5-(1H-tetrazol-5-yl)-4-[6-(trifluoromethyl)pyridin-3-yl]phenyl}-1-[2-fluoro-4-(trifluoromethyl)phenyl] cyclopropane-carboxamide]
8.11	7.85		Cc1ccc(-c2c(F)cc(NC(=O)C3(c4cccc(Cl)c4)CC3)cc2-c2nnn[nH]2)cn1 [Example 245, 1-(3-chlorophenyl)-N-[3-fluoro-4-(6-methylpyridin-3-yl)-5-(1H-tetrazol-5-yl)phenyl] cyclopropane-carboxamide]
3.52	10.6		O=C(Nc1ccc(-c2ccc(C(F)F)nc2)c(-c2nnn[nH]2)c1)C1(c2ccc(C(F)(F)F)cc2F)CC1 [Example 259, N-{4-[6-(difluoromethyl)pyridin-3-yl]-3-(1H-tetrazol-5-yl)phenyl}-1-[2-fluoro-4-(trifluoromethyl)phenyl]cyclopro-panecarboxamide]
18.8	14.9		O=C(Nc1ccc(-c2ccc(C(F)F)nc2)c(-c2nnn[nH]2)c1)C1(c2cccc(Cl)c2)CC1 [Example 260, 1-(3-chlorophenyl)-N-{4-[6-(difluoromethyl)pyridin-3-yl]-3-(1H-tetrazol-5-yl)phenyl}cyclopro-panecarboxa-mide]

From patent US20210317092A1 (BAYER PHARMA AKTIENGESELLSCHAFT, priority 2016, published 2021)
